# Laboratory results as given in patent US9611252B2 (LifeSci Pharmaceuticals, Inc., priority 2013, dated 2017).
# Like-named read-outs stand apart in the source and are kept apart here.
# Target: human Plasma Kallikrein (Homo sapiens (Human), UniProt P03952)
# Assay: In vitro enzyme inhibition of human plasma kallikrein (PFR-AMC cleavage)
# Type: biochemical
# Description: The ability of the compounds disclosed herein to inhibit human plasma kallikrein activity was quantified according to the procedures below.
# A 10 mM solution of the test compound was made in DMSO. […] A control tube containing only DMSO is included. 16 μL of each compound test solution was combined with 384 μL of assay buffer (50 mM Tris-HCl pH 7.5, 150 mM NaCl, 0.01% Triton X-100) to yield a “4× test compound buffer stock”.
# These solutions are hereby referred to as 4×hPK and 2×PFR-AMC, respectively.
# 50 μL was removed from this mixture and placed into duplicate wells on a Microfluor 1Black U-bottom microtiter plate (Thermo Scientific). This plate was incubated for 5 minutes at 37° C. To each well, 50 μL of pre-warmed 2×PFR-AMC was added to start the enzymatic reaction. Cleavage of PFR-AMC was monitored in a Biotek Synergy H4 reader set at 37° C. Readings are taken every 43 seconds for 1 hour. […] The IC50 is calculated using the Gen5 (Biotek Instruments).
# The ability of the compounds in Table 3 to inhibit human plasma kallikrein activity was determined.
# [1] = human plasma kallikrein, Pro-Phe-Arg-AMC substrate, 37° C., read-out: hPK IC50
# Chain of human Plasma Kallikrein (P03952 20-638): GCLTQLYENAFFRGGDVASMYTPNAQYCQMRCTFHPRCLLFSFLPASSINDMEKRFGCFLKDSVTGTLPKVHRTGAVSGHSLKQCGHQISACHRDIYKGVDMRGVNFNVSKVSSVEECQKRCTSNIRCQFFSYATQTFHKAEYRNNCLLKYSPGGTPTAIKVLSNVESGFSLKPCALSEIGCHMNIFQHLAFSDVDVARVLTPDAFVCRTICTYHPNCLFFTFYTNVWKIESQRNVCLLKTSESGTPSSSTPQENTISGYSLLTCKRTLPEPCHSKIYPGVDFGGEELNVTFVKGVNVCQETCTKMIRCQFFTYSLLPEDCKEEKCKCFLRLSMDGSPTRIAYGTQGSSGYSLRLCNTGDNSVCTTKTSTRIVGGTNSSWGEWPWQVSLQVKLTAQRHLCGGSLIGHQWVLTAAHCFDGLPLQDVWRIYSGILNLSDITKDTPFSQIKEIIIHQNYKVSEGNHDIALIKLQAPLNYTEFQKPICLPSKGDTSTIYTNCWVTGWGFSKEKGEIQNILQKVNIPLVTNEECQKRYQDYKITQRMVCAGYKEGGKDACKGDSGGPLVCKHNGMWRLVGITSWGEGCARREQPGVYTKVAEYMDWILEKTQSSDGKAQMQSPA
structure (smiles),measurement,setting,value
"NC(=O)c1ccc2cc(Cc3cc(C(=O)NCc4cc5c(Cl)c[nH]c5cc4F)ccn3)ccc2n1 [Example 1, 6-((4-(((3-chloro-6-fluoro-1H-indol-5-yl)methyl)carbamoyl)pyridin-2-yl)methyl)quinoline-2-carboxamide]",IC50,[1],100 to 1000 nM
"Cc1cc(N)nc(C)c1CNC(=O)c1ccnc(Cc2ccc3nc(C(N)=O)ccc3c2)c1 [Example 2, 6-((4-(((6-amino-2,4-dimethylpyridin-3-yl)methyl)carbamoyl)pyridin-2-yl)methyl)quinoline-2-carboxamide]",IC50,[1],100 to 1000 nM
"N#Cc1ccc2cc(Cc3cc(C(=O)NCc4ccc5c(N)nccc5c4)ccn3)ccc2n1 [Example 3, N-((1-aminoisoquinolin-6-yl)methyl)-2-((2-cyanoquinolin-6-yl)methyl)isonicotinamide]",IC50,[1],< 100 nM
NC(=O)c1ccc2cc(Cc3cc(C(=O)NCc4ccc5c(N)nccc5c4)ccn3)ccc2n1 [Example 4],IC50,[1],100 to 1000 nM
"N#Cc1cnc2ccc(Cc3cc(C(=O)NCc4cc5c(Cl)c[nH]c5cc4F)ccn3)cc2c1 [Example 5, N-((3-chloro-6-fluoro-1H-indol-5-yl)methyl)-2-((3-cyanoquinolin-6-yl)methyl)isonicotinamide]",IC50,[1],< 100 nM
"N#Cc1cnc2ccc(Cc3cc(C(=O)NCc4ccc5c(N)nccc5c4)ccn3)cc2c1 [Example 6, N-((1-aminoisoquinolin-6-yl)methyl)-2-((3-cyanoquinolin-6-yl)methyl)isonicotinamide]",IC50,[1],< 100 nM
"Cc1cc(N)nc(C)c1CNC(=O)c1ccnc(Cc2ccc3ncc(C#N)cc3c2)c1 [Example 7, N-((6-amino-2,4-dimethylpyridin-3-yl)methyl)-2-((3-cyanoquinolin-6-yl)methyl)isonicotinamide]",IC50,[1],< 100 nM
"Nc1nccc2cc(CNC(=O)c3ccnc(Cc4cnc5ccc(F)cc5n4)c3)ccc12 [Example 8, N-((1-aminoisoquinolin-6-yl)methyl)-2-((7-fluoroquinoxalin-2-yl)methyl)isonicotinamide]",IC50,[1],100 to 1000 nM
"CC(=O)NCc1ccc2cc(Cc3cc(C(=O)NCc4cc5c(Cl)c[nH]c5cc4F)ccn3)ccc2n1 [Example 9, 2-[2-(acetylamino-methyl)-quinolin-6-ylmethyl]-N-(3-chloro-6-fluoro-1H-indol-5-ylmethyl)-isonicotinamide]",IC50,[1],100 to 1000 nM
"CC(=O)NCc1ccc2cc(Cc3cc(C(=O)NCc4ccc5c(N)nccc5c4)ccn3)ccc2n1 [Example 10, 2-[2-(acetylamino-methyl)-quinolin-6-ylmethyl]-N-(1-amino-isoquinolin-6-ylmethyl)-isonicotinamide]",IC50,[1],100 to 1000 nM
"CC(=O)NCc1ccc2cc(Cc3cc(C(=O)NCc4c(C)cc(N)nc4C)ccn3)ccc2n1 [Example 11, 2-[2-(acetylamino-methyl)-quinolin-6-ylmethyl]-N-(6-amino-2,4-dimethyl-pyridin-3-ylmethyl)-isonicotinamide]",IC50,[1],100 to 1000 nM
"CS(=O)(=O)c1ccc2ncc(Cc3cc(C(=O)NCc4cc5c(Cl)c[nH]c5cc4F)ccn3)cc2c1 [Example 12, N-((3-chloro-6-fluoro-1H-indol-5-yl)methyl)-2-((6-(methylsulfonyl)quinolin-3-yl)methyl)isonicotinamide]",IC50,[1],< 100 nM
"CS(=O)(=O)c1ccc2ncc(Cc3cc(C(=O)NCc4ccc5c(N)nccc5c4)ccn3)cc2c1 [Example 13, N-((1-aminoisoquinolin-6-yl)methyl)-2-((6-(methylsulfonyl)quinolin-3-yl)methyl)isonicotinamide]",IC50,[1],100 to 1000 nM
"Cc1cc(N)nc(C)c1CNC(=O)c1ccnc(Cc2cnc3ccc(S(C)(=O)=O)cc3c2)c1 [Example 14, N-((6-amino-2,4-dimethylpyridin-3-yl)methyl)-2-((6-(methylsulfonyl)quinolin-3-yl)methyl)isonicotinamide]",IC50,[1],100 to 1000 nM
"Cc1cc(N)nc(C)c1CNC(=O)c1ccnc(Cn2ccc3c(Cl)cccc3c2=O)c1 [Example 22, N-(6-Amino-2,4-dimethyl-pyridin-3-ylmethyl)-2-(5-chloro-1-oxo-1H-isoquinolin-2-ylmethyl)-isonicotinamide]",IC50,,100 to 1000 nM
"Cc1cc(N)nc(C)c1CNC(=O)c1ccnc(Cn2ccc3cc(Cl)ccc3c2=O)c1 [Example 23, N-((6-amino-2,4-dimethylpyridin-3-yl)methyl)-2-((6-chloro-1-oxoisoquinolin-2(1H)-yl)methyl)isonicotinamide]",IC50,[1],1000 to 10000 nM
"Cc1cc(N)nc(C)c1CNC(=O)c1ccnc(Cc2ccc3[nH]cc(Cl)c3c2)c1 [Example 24, N-((6-amino-2,4-dimethylpyridin-3-yl)methyl)-2-((3-chloro-1H-indol-5-yl)methyl)isonicotinamide]",IC50,[1],100 to 1000 nM
"Cc1cc(N)nc(C)c1CNC(=O)c1ccnc(Cc2ccc3[nH]cc(C)c3c2)c1 [Example 25, N-((6-amino-2,4-dimethylpyridin-3-yl)methyl)-2-((3-methyl-1H-indol-5-yl)methyl)isonicotinamide]",IC50,[1],100 to 1000 nM
"Cc1nc(N)c(C#N)cc1CNC(=O)c1ccnc(Cc2ccc3ncc(Cl)cc3c2)c1 [Example 26, N-((6-amino-5-cyano-2-methylpyridin-3-yl)methyl)-2-((3-chloroquinolin-6-yl)methyl)isonicotinamide]",IC50,[1],1000 to 10000 nM
"Cc1nc(N)c(C(N)=O)cc1CNC(=O)c1ccnc(Cc2ccc3ncc(Cl)cc3c2)c1 [Example 27, 2-amino-5-((2-((3-chloroquinolin-6-yl)methyl)isonicotinamido)methyl)-6-methylnicotinamide]",IC50,[1],> 10000 nM
"Cc1nc(N)c(Cl)cc1CNC(=O)c1ccnc(Cc2ccc3ncc(Cl)cc3c2)c1 [Example 28, N-((6-amino-5-chloro-2-methylpyridin-3-yl)methyl)-2-((3-chloroquinolin-6-yl)methyl)isonicotinamide]",IC50,[1],1000 to 10000 nM
"Cc1cc(N)ncc1CNC(=O)c1ccnc(Cc2ccc3ncc(Cl)cc3c2)c1 [Example 29, N-((6-amino-4-methylpyridin-3-yl)methyl)-2-((3-chloroquinolin-6-yl)methyl)isonicotinamide]",IC50,[1],< 100 nM
"Nc1ccc(CNC(=O)c2ccnc(Cc3ccc4ncc(Cl)cc4c3)c2)c(C(F)(F)F)n1 [Example 30, N-((6-amino-2-(trifluoromethyl)pyridin-3-yl)methyl)-2-((3-chloroquinolin-6-yl)methyl)isonicotinamide]",IC50,[1],> 10000 nM
"O=C(NCc1cc2cn[nH]c2cc1F)c1ccnc(Cc2ccc3ncc(Cl)cc3c2)c1 [Example 32, 2-(3-chloro-quinolin-6-ylmethyl)-N-(6-fluoro-1H-indazol-5-ylmethyl)-isonicotinamide]",IC50,[1],1000 to 10000 nM
"Nc1noc2cc(CNC(=O)c3ccnc(Cc4ccc5ncc(Cl)cc5c4)c3)ccc12 [Example 36, N-((3-aminobenzo[d]isoxazol-6-yl)methyl)-2-((3-chloroquinolin-6-yl)methyl)isonicotinamide]",IC50,[1],1000 to 10000 nM
"O=C(NCc1n[nH]c2ccc(Cl)cc12)c1ccnc(Cc2ccc3ncc(Cl)cc3c2)c1 [Example 37, N-(5-chloro-1H-indazol-3-ylmethyl)-2-(3-chloro-quinolin-6-ylmethyl)-isonicotinamide]",IC50,[1],< 100 nM
"O=C(NCc1cc2cc[nH]c2cc1F)c1ccnc(Cc2ccc3ncc(Cl)cc3c2)c1 [Example 41, 2-(3-chloro-quinolin-6-ylmethyl)-N-(6-fluoro-1H-indol-5-ylmethyl)-isonicotinamide]",IC50,[1],< 100 nM
"CNc1ccc(CNC(=O)c2ccnc(Cc3ccc4ncc(Cl)cc4c3)c2)c(C)n1 [Example 42, 2-((3-chloroquinolin-6-yl)methyl)-N-((2-methyl-6-(methylamino)pyridin-3-yl)methyl)isonicotinamide]",IC50,[1],100 to 1000 nM
"Nc1ccc(CNC(=O)c2ccnc(Cc3ccc4ncc(Cl)cc4c3)c2)c(C2CC2)n1 [Example 43, N-((6-amino-2-cyclopropylpyridin-3-yl)methyl)-2-((3-chloroquinolin-6-yl)methyl)isonicotinamide]",IC50,[1],100 to 1000 nM
"Cc1nc(N(C)C)ccc1CNC(=O)c1ccnc(Cc2ccc3ncc(Cl)cc3c2)c1 [Example 44, 2-((3-chloroquinolin-6-yl)methyl)-N-((6-(dimethylamino)-2-methylpyridin-3-yl)methyl)isonicotinamide]",IC50,[1],> 10000 nM
"NCc1ccc2cc(Cc3cc(C(=O)NCc4cc5c(Cl)c[nH]c5cc4F)ccn3)ccc2n1 [Example 45, 2-((2-(aminomethyl)quinolin-6-yl)methyl)-N-((3-chloro-6-fluoro-1H-indol-5-yl)methyl)isonicotinamide]",IC50,[1],100 to 1000 nM
"Cc1cc(N)nc(C)c1CNC(=O)c1ccnc(Cc2ccc3nc(CN)ccc3c2)c1 [Example 46, N-((6-amino-2,4-dimethylpyridin-3-yl)methyl)-2-((2-(aminomethyl)quinolin-6-yl)methyl)isonicotinamide]",IC50,[1],< 100 nM
"Cc1cnc2ccc(Cc3cc(C(=O)NCc4ccc5c(N)noc5c4)ccn3)cc2c1 [Example 47, N-((3-aminobenzo[d]isoxazol-6-yl)methyl)-2-((3-methylquinolin-6-yl)methyl)isonicotinamide]",IC50,[1],1000 to 10000 nM
"Cc1ccc2ncc(Cc3cc(C(=O)NCc4ccc5c(N)noc5c4)ccn3)cc2c1 [Example 48, N-((3-aminobenzo[d]isoxazol-6-yl)methyl)-2-((6-methylquinolin-3-yl)methyl)isonicotinamide]",IC50,[1],> 10000 nM
"N#Cc1cc(Cc2cc(C(=O)NCc3cc4c(Cl)c[nH]c4cc3F)ccn2)cc2cc(Cl)cnc12 [Example 49, N-((3-chloro-6-fluoro-1H-indol-5-yl)methyl)-2-((3-chloro-8-cyanoquinolin-6-yl)methyl)isonicotinamide]",IC50,[1],< 100 nM
